Here are results for 19 compounds from article PMC11729419, “Thiol-Reactive or Redox-Active: Revising a Repurposing Screen Led to a New Invalidation Pipeline and Identified a True Noncovalent Inhibitor Against Papain-like Protease from SARS-CoV-2” (ACS Pharmacology & Translational Science, 2024).

One assay deals with SARS-CoV-2 PLpro-NAB (Severe acute respiratory syndrome coronavirus 2, UniProt P0DTD1). Briefly: biochemical.
Setting [1] is: read-out: HC PLpro-NAB SARS-CoV-2 inhibition [%] 20 µM triplicates DTT BUFFER.
Where [2] appears, read: read-out: HP PLpro-NAB SARS-CoV-2 inhibition [%] 20 µM triplicates L-CYS BUFFER.
The mark [3] stands for this setting: Table S1, DTT buffer, read-out: HP PLpro-NAB SARS-CoV-2 IC50 [µM] triplicates DTT BUFFER.
The mark [4] stands for this setting: Table S1, L-cysteine buffer, read-out: HP PLpro-NAB SARS-CoV-2 IC50 [µM] duplicates L-CYS BUFFER.

Where a name gives a salt, the structure may show the parent alone. Read-outs that look alike come from different tables or passages of the source. Where only a bound is given, the exact number is not on record here.

Turning to Walrycin B, the “Interference inhibition [%] 20 µM based on product interference DTT BUFFER” value (“Interference inhibition [%] 20 µM based” for short) was found to be 8.01% (Table S1, 20 µM, DTT buffer, listed as Walrycin B (EOS)) and 4.84% (Table S1, 20 µM, DTT buffer, listed as Walrycin B (FhG)).

In general, inhibition refers to the drop in the measured response relative to a control, in per cent. On to `O=c1ccc2[n+]([O-])c3ccc(O)cc3oc-2c1` [Resazurin (sodium salt), Resazurin], for which the figures for the inhibition at 20 µM at SARS-CoV-2 PLpro-NAB (setting [1]) and on SARS-CoV-2 PLpro-NAB (setting [2]) were 72.9% and -36.5%, respectively. Besides, the “Interference inhibition [%] 20 µM based” value (Table S1, 20 µM, DTT buffer) is given as 11.91%.

On to `O=C1C=CC(=O)c2c(O)cccc21` [Juglone], for which the “Interference inhibition [%] 20 µM based” value (Table S1, 20 µM, DTT buffer) worked out at 12.84%.

Consider `CC[N+](C)(CC)CCC[n+]1c(-c2ccccc2)c2cc(N)ccc2c2ccc(N)cc21.[I-].[I-]` [Propidium-Iodide], for which the “Interference inhibition [%] 20 µM based” value (Table S1, 20 µM, DTT buffer) is on record as 0.27%.

Take `CCOC(=O)C1=C(C)N=c2sc(=Cc3ccc(OCC(=O)O)cc3)c(=O)n2C1c1ccc(SC)cc1` (stereo not drawn) [ML120]: the “Interference inhibition [%] 20 µM based” value (Table S1, 20 µM, DTT buffer) was determined as 3.32%.

A word on the IC50: it is the midpoint of a concentration-inhibition curve. As to `O=C1C(Cl)=C(NCCN2CCOCC2)C(=O)c2ncccc21` [NSC-663284 (FhG)], the “HC PLpro-NAB SARS-CoV-2 inhibition [%] 20 µM triplicates DTT BUFFER” value on SARS-CoV-2 PLpro-NAB (Table S1, 20 µM, DTT buffer, average (SD)) was 150.90 (0.34) %; at SARS-CoV-2 PLpro-NAB (Table S1, 20 µM, DTT buffer, average (SD), listed as NSC 663284 (EOS)) it was 168.59 (3.49) %. The “HP PLpro-NAB SARS-CoV-2 inhibition [%] 20 µM triplicates L-CYS BUFFER” value on SARS-CoV-2 PLpro-NAB (Table S1, 20 µM, L-cysteine buffer, average (SD)) was 7.56 (11.27) %; at SARS-CoV-2 PLpro-NAB (Table S1, 20 µM, L-cysteine buffer, average (SD), listed as NSC 663284 (EOS)) it was -38.39 (8.32) %. The IC50 on SARS-CoV-2 PLpro-NAB (Table S1, DTT buffer, listed as NSC 663284 (EOS), read-out: HP PLpro-NAB SARS-CoV-2 IC50 [µM] triplicates DTT BUFFER) is 2.15 µM; at SARS-CoV-2 PLpro-NAB (setting [3]) it was 0.22 µM; on SARS-CoV-2 PLpro-NAB (setting [4]) it was greater than 20 µM. Besides, the “Interference inhibition [%] 20 µM based” value is -0.99% (Table S1, 20 µM, DTT buffer) and 14.95% (Table S1, 20 µM, DTT buffer, listed as NSC 663284 (EOS)).

For `Cc1cccc2c3c(ccc12)C1=C(C(=O)C3=O)[C@@H](C)CO1` [Dihydrotanshinone I], the “Interference inhibition [%] 20 µM based” value (Table S1, 20 µM, DTT buffer) is listed as -55.01%.

For `C[n+]1c2cc(N)ccc2cc2ccc(N)cc21.[Cl-]` [Acriflavinium Hydrochloride], the “Interference inhibition [%] 20 µM based” value (Table S1, 20 µM, DTT buffer) is -17.48%.

For `O=C1C(=O)c2ccccc2-c2ccccc21` [9,10-Phenanthrenequinone], the “Interference inhibition [%] 20 µM based” value (Table S1, 20 µM, DTT buffer) is -2.46%.

Turning to `Cn1cccc1/C=C1\C(=O)NC(=O)c2ccccc21` [BYK-204165], the “Interference inhibition [%] 20 µM based” value (Table S1, 20 µM, DTT buffer) is -5.54%.

In the case of `NC(Cc1cc(O)c(O)cc1O)C(=O)O` (racemic) [6-Hydroxy-DL-DOPA], the “Interference inhibition [%] 20 µM based” value (Table S1, 20 µM, DTT buffer) is listed as 14.95%.

As for `Cc1nc2c(=O)n(C)c(=O)nc-2n(C)n1` [3-Methyl Toxoflavin], the “Interference inhibition [%] 20 µM based” value (Table S1, 20 µM, DTT buffer) was 10.44%.

Consider `CC[n+]1c(-c2ccccc2)c2cc(N)ccc2c2ccc(N)cc21` [Homidium Bromide], for which the “Interference inhibition [%] 20 µM based” value (Table S1, 20 µM, DTT buffer) was 1.40%.

For Ro-08-2750, for the setting “Table S1, 20 µM, DTT buffer”, the “Interference inhibition [%] 20 µM based” value is 0.17%.

For `CC1(C)CCC2=C(O1)C(=O)c1ccccc1C2=O` [Alpha Lapachone], the “Interference inhibition [%] 20 µM based” value (Table S1, 20 µM, DTT buffer) is -0.29%.

On to `CC(C)Nc1cccnc1N1CCN(C(=O)c2cc3cc(NS(C)(=O)=O)ccc3[nH]2)CC1` [Delavirdine (mesylate), Delavirdine], for which the “Interference inhibition [%] 20 µM based” value is given as -20.91%. The inhibition at 20 µM at SARS-CoV-2 PLpro-NAB (setting [1]) came out at 52.2%. For the same compound, the inhibition at 20 µM on SARS-CoV-2 PLpro-NAB (setting [2]) was -69.3%.

As to Chicago-Sky-Blue-6b, the “Interference inhibition [%] 20 µM based” value (Table S1, 20 µM, DTT buffer) is recorded as -5.59%.

Consider Ryuvidine, for which, for the setting “Table S1, 20 µM, DTT buffer”, the “Interference inhibition [%] 20 µM based” value was -2.15%.

`O=C(O)c1c(Cl)c(Cl)c(Cl)c(Cl)c1-c1c2cc(I)c(=O)c(I)c-2oc2c(I)c(O)c(I)cc12` [Rose Bengal Sodium]: the inhibition at 20 µM on SARS-CoV-2 PLpro-NAB (Table S1, 20 µM, DTT buffer, average (SD), read-out: HC PLpro-NAB SARS-CoV-2 inhibition [%] 20 µM triplicates DTT BUFFER) is 107%; at SARS-CoV-2 PLpro-NAB (Table S1, 20 µM, L-cysteine buffer, average (SD), read-out: HP PLpro-NAB SARS-CoV-2 inhibition [%] 20 µM triplicates L-CYS BUFFER) it was -32.4%. The concentration for half-maximal inhibition (IC50) on SARS-CoV-2 PLpro-NAB (setting [3]) and at SARS-CoV-2 PLpro-NAB (setting [4]) was greater than 20 µM each time. Moreover, the “Interference inhibition [%] 20 µM based” value (Table S1, 20 µM, DTT buffer) is 12.07%.
